Active and inactive are the calls of the source.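 How the source made its calls: active means versus DMSO control, mean enzyme activity at or below 80% or at or above 120%; inactive means between 80% and 120% mean enzyme activity.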
Experiments:
Experiment in all cases: kinase activity changes across 48 kinases – biochemical, 33P-ATP radiometric, Reaction Biology, powder sample, selectivity assay for KLF5 inhibitor project, late-stage follow-up (AID 588725)
[1] = target: Mitogen-activated protein kinase 12 (Homo sapiens) (UniProt P53778); conditions: 48-kinase panel, 33P-ATP radiometric activity, P38g, at 10 µM
[2] = target: Serine/threonine-protein kinase D3 (Homo sapiens) (UniProt O94806); conditions: 48-kinase panel, 33P-ATP radiometric activity, PKCnu, at 10 µM
[3] = target: Protein kinase C delta type (Homo sapiens) (UniProt Q05655); conditions: 48-kinase panel, 33P-ATP radiometric activity, PKCd, at 10 µM
[4] = target: Receptor tyrosine-protein kinase erbB-2 (Homo sapiens) (UniProt P04626); conditions: 48-kinase panel, 33P-ATP radiometric activity, ERBB2, at 10 µM
[5] = system: MEKK3; conditions: 48-kinase panel, 33P-ATP radiometric activity, at 10 µM
[6] = target: Dual specificity mitogen-activated protein kinase kinase 1 (Homo sapiens) (UniProt Q02750); conditions: 48-kinase panel, 33P-ATP radiometric activity, MEK1, at 10 µM
[7] = target: Glycogen synthase kinase-3 alpha (Homo sapiens) (UniProt P49840); conditions: 48-kinase panel, 33P-ATP radiometric activity, GSK3a, at 10 µM
[8] = target: RAC-beta serine/threonine-protein kinase (Homo sapiens) (UniProt P31751); conditions: 48-kinase panel, 33P-ATP radiometric activity, AKT2, at 10 µM
[9] = target: Protein kinase C iota type (Homo sapiens) (UniProt P41743); conditions: 48-kinase panel, 33P-ATP radiometric activity, PKCiota, at 10 µM
[10] = system: Aurora A; conditions: 48-kinase panel, 33P-ATP radiometric activity, at 10 µM
[11] = target: RAC-alpha serine/threonine-protein kinase (Homo sapiens) (UniProt P31749); conditions: 48-kinase panel, 33P-ATP radiometric activity, AKT1, at 10 µM
[12] = target: Inhibitor of nuclear factor kappa-B kinase subunit alpha (Homo sapiens) (UniProt O15111); conditions: 48-kinase panel, 33P-ATP radiometric activity, IKKa, at 10 µM
[13] = system: PKCb1; conditions: 48-kinase panel, 33P-ATP radiometric activity, at 10 µM
[14] = system: MEK2; conditions: 48-kinase panel, 33P-ATP radiometric activity, at 10 µM
[15] = target: Cyclin-dependent kinase 1 (Homo sapiens) (UniProt P06493); conditions: 48-kinase panel, 33P-ATP radiometric activity, at 10 µM
[16] = target: Epidermal growth factor receptor (Homo sapiens) (UniProt P00533); conditions: 48-kinase panel, 33P-ATP radiometric activity, EGFR, at 10 µM
[17] = target: Mitogen-activated protein kinase 14 (Homo sapiens) (UniProt Q16539); conditions: 48-kinase panel, 33P-ATP radiometric activity, P38a, at 10 µM
[18] = system: PKCepsilon; conditions: 48-kinase panel, 33P-ATP radiometric activity, at 10 µM
[19] = target: Protein kinase C theta type (Homo sapiens) (UniProt Q04759); conditions: 48-kinase panel, 33P-ATP radiometric activity, PKCtheta, at 10 µM
[20] = system: MLK3; conditions: 48-kinase panel, 33P-ATP radiometric activity, at 10 µM
[21] = system: p70S6Kb; conditions: 48-kinase panel, 33P-ATP radiometric activity, at 10 µM
[22] = system: MEKK2; conditions: 48-kinase panel, 33P-ATP radiometric activity, at 10 µM
[23] = system: MKK6; conditions: 48-kinase panel, 33P-ATP radiometric activity, at 10 µM
[24] = system: P38b; conditions: 48-kinase panel, 33P-ATP radiometric activity, at 10 µM
[25] = system: JAK1; conditions: 48-kinase panel, 33P-ATP radiometric activity, at 10 µM
[26] = system: JNK1; conditions: 48-kinase panel, 33P-ATP radiometric activity, at 10 µM
[27] = target: Mitogen-activated protein kinase 9 (Homo sapiens) (UniProt P45984); conditions: 48-kinase panel, 33P-ATP radiometric activity, JNK2, at 10 µM
[28] = system: PKCeta; conditions: 48-kinase panel, 33P-ATP radiometric activity, at 10 µM
[29] = target: Protein kinase C gamma type (Homo sapiens) (UniProt P05129); conditions: 48-kinase panel, 33P-ATP radiometric activity, PKCg, at 10 µM
[30] = target: Inhibitor of nuclear factor kappa-B kinase subunit beta (Homo sapiens) (UniProt O14920); conditions: 48-kinase panel, 33P-ATP radiometric activity, IKKb, at 10 µM
[31] = target: Ribosomal protein S6 kinase beta-1 (Homo sapiens) (UniProt P23443); conditions: 48-kinase panel, 33P-ATP radiometric activity, p70S6K, at 10 µM
[32] = target: Mitogen-activated protein kinase 10 (Homo sapiens) (UniProt P53779); conditions: 48-kinase panel, 33P-ATP radiometric activity, JNK3, at 10 µM
[33] = system: CDK5/p35; conditions: 48-kinase panel, 33P-ATP radiometric activity, at 10 µM
[34] = target: Serine/threonine-protein kinase D1 (Homo sapiens) (UniProt Q15139); conditions: 48-kinase panel, 33P-ATP radiometric activity, PKCmu, at 10 µM
[35] = target: Glycogen synthase kinase-3 beta (Homo sapiens) (UniProt P49841); conditions: 48-kinase panel, 33P-ATP radiometric activity, GSK3b, at 10 µM
[36] = target: Receptor tyrosine-protein kinase erbB-4 (Homo sapiens) (UniProt Q15303); conditions: 48-kinase panel, 33P-ATP radiometric activity, ERBB4, at 10 µM
[37] = target: RAC-gamma serine/threonine-protein kinase (Homo sapiens) (UniProt Q9Y243); conditions: 48-kinase panel, 33P-ATP radiometric activity, AKT3, at 10 µM
[38] = system: PKCa; conditions: 48-kinase panel, 33P-ATP radiometric activity, at 10 µM
[39] = system: CDK5/p25; conditions: 48-kinase panel, 33P-ATP radiometric activity, at 10 µM
[40] = target: Serine/threonine-protein kinase B-raf (Homo sapiens) (UniProt P15056); conditions: 48-kinase panel, 33P-ATP radiometric activity, BRAF, at 10 µM
[41] = system: P38d; conditions: 48-kinase panel, 33P-ATP radiometric activity, at 10 µM
[42] = target: Cyclin-dependent kinase 2 (Homo sapiens) (UniProt P24941); conditions: 48-kinase panel, 33P-ATP radiometric activity, at 10 µM
[43] = target: Protein kinase C zeta type (Homo sapiens) (UniProt Q05513); conditions: 48-kinase panel, 33P-ATP radiometric activity, PKCzeta, at 10 µM
[44] = system: PKCb2; conditions: 48-kinase panel, 33P-ATP radiometric activity, at 10 µM
[45] = target: Mitogen-activated protein kinase 3 (Homo sapiens) (UniProt P27361); conditions: 48-kinase panel, 33P-ATP radiometric activity, ERK1, at 10 µM
[46] = target: Mitogen-activated protein kinase 1 (Homo sapiens) (UniProt P28482); conditions: 48-kinase panel, 33P-ATP radiometric activity, ERK2, at 10 µM

Measured: enzyme activity

Cyclin-dependent kinase 1 (Homo sapiens), sequence (P06493 whole entry, looked up): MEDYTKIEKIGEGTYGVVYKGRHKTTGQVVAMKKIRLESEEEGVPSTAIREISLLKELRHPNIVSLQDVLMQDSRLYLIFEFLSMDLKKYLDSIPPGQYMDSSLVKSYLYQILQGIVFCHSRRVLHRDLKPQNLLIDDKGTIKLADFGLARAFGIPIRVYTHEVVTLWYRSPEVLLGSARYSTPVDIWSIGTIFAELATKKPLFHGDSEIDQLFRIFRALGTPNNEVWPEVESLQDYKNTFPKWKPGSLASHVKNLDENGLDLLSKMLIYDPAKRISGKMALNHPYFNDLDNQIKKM
Receptor tyrosine-protein kinase erbB-4 (Homo sapiens), sequence (Q15303 whole entry, looked up): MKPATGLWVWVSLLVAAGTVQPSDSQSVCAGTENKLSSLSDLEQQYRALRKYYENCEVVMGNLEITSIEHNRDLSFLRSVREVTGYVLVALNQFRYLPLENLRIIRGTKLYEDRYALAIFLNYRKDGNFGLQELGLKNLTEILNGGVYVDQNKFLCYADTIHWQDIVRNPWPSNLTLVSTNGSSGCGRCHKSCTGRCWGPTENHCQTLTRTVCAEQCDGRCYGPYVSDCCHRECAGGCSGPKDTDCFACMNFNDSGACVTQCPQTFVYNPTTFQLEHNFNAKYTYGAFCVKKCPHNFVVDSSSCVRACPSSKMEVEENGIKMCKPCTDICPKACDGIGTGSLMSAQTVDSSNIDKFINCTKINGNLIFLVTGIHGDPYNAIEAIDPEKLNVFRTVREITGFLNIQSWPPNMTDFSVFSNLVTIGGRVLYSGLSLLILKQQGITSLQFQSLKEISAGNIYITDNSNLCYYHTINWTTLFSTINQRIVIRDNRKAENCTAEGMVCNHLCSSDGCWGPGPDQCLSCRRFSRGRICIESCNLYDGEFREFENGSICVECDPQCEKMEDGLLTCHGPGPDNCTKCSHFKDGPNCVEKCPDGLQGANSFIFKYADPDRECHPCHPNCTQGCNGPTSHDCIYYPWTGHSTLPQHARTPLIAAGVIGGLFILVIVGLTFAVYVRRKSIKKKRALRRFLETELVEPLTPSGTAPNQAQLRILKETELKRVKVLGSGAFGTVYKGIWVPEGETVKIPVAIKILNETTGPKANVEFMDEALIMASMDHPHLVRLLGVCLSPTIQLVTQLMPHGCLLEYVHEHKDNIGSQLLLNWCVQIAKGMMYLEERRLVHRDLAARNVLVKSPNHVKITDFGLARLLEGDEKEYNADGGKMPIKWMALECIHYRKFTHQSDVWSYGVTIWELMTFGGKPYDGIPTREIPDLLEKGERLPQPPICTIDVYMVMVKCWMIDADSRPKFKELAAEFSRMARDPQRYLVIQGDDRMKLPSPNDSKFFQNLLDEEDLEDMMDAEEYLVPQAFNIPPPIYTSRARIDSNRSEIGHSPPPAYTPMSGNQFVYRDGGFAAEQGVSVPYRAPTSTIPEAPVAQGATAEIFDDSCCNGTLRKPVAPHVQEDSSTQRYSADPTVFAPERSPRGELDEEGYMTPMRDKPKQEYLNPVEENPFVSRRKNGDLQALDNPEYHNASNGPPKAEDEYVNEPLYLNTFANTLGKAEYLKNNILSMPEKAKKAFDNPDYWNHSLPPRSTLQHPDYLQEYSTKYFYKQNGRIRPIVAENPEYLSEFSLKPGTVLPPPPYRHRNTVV
RAC-gamma serine/threonine-protein kinase (Homo sapiens), sequence (Q9Y243 whole entry, looked up): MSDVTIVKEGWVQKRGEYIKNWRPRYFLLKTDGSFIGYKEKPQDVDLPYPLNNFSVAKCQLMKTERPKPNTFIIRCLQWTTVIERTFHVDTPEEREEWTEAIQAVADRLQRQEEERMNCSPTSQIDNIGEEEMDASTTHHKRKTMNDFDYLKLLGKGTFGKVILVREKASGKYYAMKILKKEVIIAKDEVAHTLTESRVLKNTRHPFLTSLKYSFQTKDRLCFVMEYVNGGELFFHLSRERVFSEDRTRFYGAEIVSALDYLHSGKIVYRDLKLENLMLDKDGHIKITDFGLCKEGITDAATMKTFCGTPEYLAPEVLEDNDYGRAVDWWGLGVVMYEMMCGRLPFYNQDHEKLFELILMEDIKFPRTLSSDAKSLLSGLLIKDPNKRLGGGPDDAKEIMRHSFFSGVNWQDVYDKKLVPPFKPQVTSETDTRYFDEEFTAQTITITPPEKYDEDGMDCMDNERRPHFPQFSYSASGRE
Glycogen synthase kinase-3 alpha (Homo sapiens), sequence (P49840 whole entry, looked up): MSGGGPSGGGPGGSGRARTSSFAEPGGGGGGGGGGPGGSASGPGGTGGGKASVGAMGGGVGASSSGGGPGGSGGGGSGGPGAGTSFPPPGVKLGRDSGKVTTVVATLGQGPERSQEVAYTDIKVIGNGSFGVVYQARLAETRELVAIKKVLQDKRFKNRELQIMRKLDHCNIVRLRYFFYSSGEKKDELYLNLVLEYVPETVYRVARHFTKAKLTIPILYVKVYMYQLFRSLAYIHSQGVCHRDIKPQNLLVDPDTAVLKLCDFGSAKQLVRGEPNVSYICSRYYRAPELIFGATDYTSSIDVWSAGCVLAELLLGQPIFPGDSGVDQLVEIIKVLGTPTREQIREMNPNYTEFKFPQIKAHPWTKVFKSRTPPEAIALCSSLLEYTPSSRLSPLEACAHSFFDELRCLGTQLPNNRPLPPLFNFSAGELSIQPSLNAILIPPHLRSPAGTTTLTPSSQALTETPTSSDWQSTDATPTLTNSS
Mitogen-activated protein kinase 1 (Homo sapiens), sequence (P28482 whole entry, looked up): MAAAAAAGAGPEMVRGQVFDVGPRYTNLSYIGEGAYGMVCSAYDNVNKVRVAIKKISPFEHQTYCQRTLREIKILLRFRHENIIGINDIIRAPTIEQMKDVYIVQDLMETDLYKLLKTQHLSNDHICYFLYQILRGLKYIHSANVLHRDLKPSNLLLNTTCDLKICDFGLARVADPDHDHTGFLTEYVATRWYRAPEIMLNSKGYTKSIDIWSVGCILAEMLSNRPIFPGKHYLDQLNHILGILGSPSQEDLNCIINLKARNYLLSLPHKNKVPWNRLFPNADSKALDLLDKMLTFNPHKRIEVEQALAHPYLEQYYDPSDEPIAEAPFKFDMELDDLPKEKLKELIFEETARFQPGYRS
Protein kinase C iota type (Homo sapiens), sequence (P41743 whole entry, looked up): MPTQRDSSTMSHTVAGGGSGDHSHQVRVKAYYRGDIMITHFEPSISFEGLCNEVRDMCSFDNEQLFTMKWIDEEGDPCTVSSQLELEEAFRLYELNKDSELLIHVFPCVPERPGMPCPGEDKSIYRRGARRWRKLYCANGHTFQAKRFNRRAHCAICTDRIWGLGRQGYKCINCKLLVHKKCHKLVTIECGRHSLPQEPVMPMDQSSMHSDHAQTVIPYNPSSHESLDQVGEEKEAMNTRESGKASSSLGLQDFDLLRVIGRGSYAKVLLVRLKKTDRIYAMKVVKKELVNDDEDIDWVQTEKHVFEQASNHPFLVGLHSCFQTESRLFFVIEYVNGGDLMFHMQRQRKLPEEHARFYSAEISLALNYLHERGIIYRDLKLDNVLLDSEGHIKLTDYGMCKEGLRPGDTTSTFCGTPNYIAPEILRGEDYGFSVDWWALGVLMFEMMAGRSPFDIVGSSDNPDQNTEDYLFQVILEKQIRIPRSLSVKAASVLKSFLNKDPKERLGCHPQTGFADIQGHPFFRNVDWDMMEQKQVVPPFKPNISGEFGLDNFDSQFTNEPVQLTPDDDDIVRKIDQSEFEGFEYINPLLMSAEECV
Inhibitor of nuclear factor kappa-B kinase subunit alpha (Homo sapiens), sequence (O15111 whole entry, looked up): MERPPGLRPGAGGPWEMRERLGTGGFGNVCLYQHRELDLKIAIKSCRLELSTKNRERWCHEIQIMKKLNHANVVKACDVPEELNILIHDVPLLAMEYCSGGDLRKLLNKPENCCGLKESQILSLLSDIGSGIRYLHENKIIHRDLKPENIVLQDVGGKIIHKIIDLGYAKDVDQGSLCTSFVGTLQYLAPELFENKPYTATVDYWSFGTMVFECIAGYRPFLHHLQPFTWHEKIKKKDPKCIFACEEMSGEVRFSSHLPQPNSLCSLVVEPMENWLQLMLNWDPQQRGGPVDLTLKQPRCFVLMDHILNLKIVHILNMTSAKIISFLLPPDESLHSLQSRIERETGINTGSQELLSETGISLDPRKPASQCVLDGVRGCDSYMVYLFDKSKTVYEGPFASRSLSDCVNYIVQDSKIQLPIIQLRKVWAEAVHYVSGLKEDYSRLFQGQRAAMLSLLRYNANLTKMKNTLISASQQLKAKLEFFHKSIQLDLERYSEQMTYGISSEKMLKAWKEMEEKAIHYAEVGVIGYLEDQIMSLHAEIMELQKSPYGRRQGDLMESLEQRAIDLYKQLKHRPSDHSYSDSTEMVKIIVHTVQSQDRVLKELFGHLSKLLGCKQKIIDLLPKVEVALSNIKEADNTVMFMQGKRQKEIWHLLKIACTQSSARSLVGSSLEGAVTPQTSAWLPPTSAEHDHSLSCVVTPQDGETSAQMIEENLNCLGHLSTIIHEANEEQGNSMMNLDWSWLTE

CN(C(=O)CNC(=O)/C=C/c1cccc(Cl)c1)C1CCS(=O)(=O)CC1
inactive: [1] 105% | [2] 105% | [3] 104% | [4] 104% | [5] 99.6% | [6] 108% | [7] 104% | [8] 107% | [9] 103% | [10] 95.4% | [11] 104% | [12] 97.3% | [13] 98.5% | [14] 105% | [15]; CDK1/cyclin A 106% | [15]; CDK1/cyclin B 103% | [16] 98% | [17] 96.3% | [18] 100% | [19] 98.8% | [20] 101% | [21] 100% | [22] 102% | [23] 103% | [24] 95.7% | [25] 91.3% | [26] 101% | [27] 108% | [28] 107% | [29] 100% | [30] 107% | [31] 104% | [32] 102% | [33] 106% | [34] 106% | [35] 112% | [36] 97% | [37] 98.7% | [38] 99.6% | [39] 108% | [40] 100% | [41] 98.3% | [42]; CDK2/cyclin A 95.5% | [42]; CDK2/cyclin E 113% | [43] 102% | [44] 102% | [45] 103% | [46] 101%

Reference: PubChem BioAssay AID588725 (The Scripps Research Institute Molecular Screening Center, 2011)
